According to patent EP0282309A2, “Azole-aminomethylene bisphosphonic acid derivatives” (YAMANOUCHI PHARMACEUTICAL CO. LTD., priority 1987, dated 1988):

Test system: PTH-induced hypercalcemia rats
Experiment: Hypercalcemia inhibiting effect: serum Ca++ lowering in PTH-induced hypercalcemia rats
Format: in vivo, Wistar male rats
Settings: blood 45 min after PTH, mean ± S.E., N=5
Description: Typical effective ingredients according to the present invention were administered to parathyroid hormone (hereinafter referred to as "PTH")-induced hypercalcemia rats and, for each ingredient, the serum calcium level lowering effect was estimated. Test method: Human 1 to 34 PTH (obtained from the Peptide Institute) was intravenously administered at a dose of 30 µg/kg to 5-week-old Wistar male rats fasted for 20 hours. For the administration, PTH was dissolved in physiological saline containing 0.1% BSA (bovine serum albumin) and the solution was given to the rats in an amount of 5 ml/kg. The normal control group was given 0.1% BSA-containing physiological saline alone in the same manner. […] The blood samples were immediately centrifuged at 4°C, and 3,000 rpm (revolutions per minute) for 10 minutes. The thus-separated sera were measured for ionic calcium (Ca⁺⁺) concentration by means of a Ca⁺⁺ meter (Sera 250; Horiba Seisakusho).
The compounds according to the invention were dissolved, using sodium hydroxide and hydrochloric acid, in physiological saline (pH 7.4), for subcutaneous administration, in such amounts that the dose amounted to 2 ml/kg, and, for oral administration, in distilled water (pH 7.4) so that the dose amounted to 5 ml/kg. They were administered 24 or 72 hours before PTH administration. The normal control group and the control group were given physiological saline or distilled water in the same manner.
The results for each group were expressed in terms of mean ±S.E. (standard error) and comparison was made among the groups by testing by one-way analysis of variance. The significance level was taken at 5%.
The compound of Example 6 was administered 24 hours before PTH administration while other compounds were administered 72 hours before PTH administration.

[1] = oral administration, 10 mg/kg, 72 hours before PTH
[2] = oral administration, 30 mg/kg, 72 hours before PTH
[3] = oral administration, 100 mg/kg, 72 hours before PTH
[4] = subcutaneous administration, 0.1 mg/kg, 72 hours before PTH
[5] = subcutaneous administration, 0.3 mg/kg, 72 hours before PTH
[6] = subcutaneous administration, 1.0 mg/kg, 72 hours before PTH

SMILES	Serum Ca^++ (oral administration, 10 mg/kg, 24 hours before PTH) [mmol/L]	Serum Ca^++ (oral administration, 30 mg/kg, 24 hours before PTH) [mmol/L]	Serum Ca^++ (oral administration, 100 mg/kg, 24 hours before PTH) [mmol/L]	Serum Ca^++ (subcutaneous administration, 0.1 mg/kg, 24 hours before PTH) [mmol/L]	Serum Ca^++ (subcutaneous administration, 0.3 mg/kg, 24 hours before PTH) [mmol/L]	Serum Ca^++ (subcutaneous administration, 1.0 mg/kg, 24 hours before PTH) [mmol/L]	Serum Ca^++ [1]	Serum Ca^++ [2]	Serum Ca^++ [3]	Serum Ca^++ (subcutaneous administration, 0.03 mg/kg, 72 hours before PTH (30 µg/kg i.v.)) [m moles/liter]	Serum Ca^++ [4]	Serum Ca^++ [5]	Serum Ca^++ [6]
O=P(O)(O)C(Nc1nccs1)P(=O)(O)O [Example 6, [(2-thiazolyl)amino]methylenebis(phosphonic acid)]	1.58 ± 0.03	1.54 ± 0.02	1.45 ± 0.03	1.49 ± 0.01	1.45 ± 0.01	1.41 ± 0.01							
Cc1cnc(NC(P(=O)(O)O)P(=O)(O)O)o1 [Example 10, [(5-methyl-2-oxazolyl)amino]methylene bis(phosphonic acid)]							1.42 ± 0.03 m moles/liter	1.27 ± 0.03 m moles/liter	1.15 ± 0.04 m moles/liter	1.46 ± 0.01	1.29 ± 0.01 m moles/liter		
Cc1cnc(NC(P(=O)(O)O)P(=O)(O)O)s1 [Example 20, [(5-Methyl-2-thiazolyl)amino]methylene bis(phosphonic acid)]							1.39 ± 0.01 mmol/L	1.25 ± 0.01 mmol/L	1.12 ± 0.0 mmol/L		0.95 ± 0.01 m moles/liter	0.93 ± 0.03 m moles/liter	0.92 ± 0.03 m moles/liter
Cc1nc(NC(P(=O)(O)O)P(=O)(O)O)sc1C [Example 21, [(4,5-Dimethyl-2-thiazolyl)amino]methylene bis(phosphonic acid)]											1.48 ± 0.01 mmol/L	1.40 ± 0.01 mmol/L	1.30 ± 0.02 mmol/L
